Values joined by “and” are separate entries in the source; they are usually repeats but may differ in a detail not shown here. Identical values can stand only once.
Target: PfCRT^Dd2 (Plasmodium falciparum, UniProt Q9N623, A220S/I356T/K76T/M74I/N326S/N75E/Q271E/R371I)
Assay: Drug uptake assay, X. laevis oocytes expressing PfCRT^Dd2
Type: cell-based
Details: for v-1 pH 4.5 / v-1 pH 5.0 / v-1 pH 5.5 / v-1 pH 6.0: Lineweaver-Burk
Protocol: Oocytes were obtained as described previously. Briefly, adult (>2 years old) female X. laevis frogs (NASCO) were anesthetized in a cooled solution of ethyl 3-amino benzoate methanesulfonate (0.1%, w/v), followed by a surgical removal of parts of the ovary. The ovary lobes were carefully dissected and small pieces of oocytes were incubated in Ca^2+-free ND96 buffer (96 mM NaCl, 2 mM KCl, 1 mM MgCl2 buffered with 5 mM HEPES/NaOH, pH 7.5) supplemented with collagenase D (0.1%, w/v; Roche), BSA (0.5%, w/v), and 9 mm Na2HPO4 at 18 °C for 14-16 h while gentle shaking. After incubation, the oocytes were carefully washed several times with ND96 buffer (96 mM NaCl, 2 mM KCl, 1.8 mM CaCl2, 1 mM MgCl2 buffered with 5 mM HEPES/NaOH, pH 7.5) supplemented with 100 mg l^−1 gentamycin). Defolliculated and healthy-looking stage V-VI oocytes were manually selected for RNA microinjection. The RNA was generated as following: The codon-optimized sequences of PfCRT variants were cloned into the pSP64T expression vector. After vector linearization using the restriction endonucleases BamHI or SalI (New England Biolabs), transcription was performed using the in vitro SP6 mMessage mMachine Kit (Ambion)[34]. The obtained RNA was kept at −80 °C and diluted with nuclease-free water to a concentration of 0.6 μg μl^−1. Precision-bore glass capillary tubes (3.5-inch glass capillaries; Drummond Scientific Co.) were pulled on a vertical puller (P-87 Flaming/Brown micropipette puller, Sutter Instrument Co.), graduated, and placed on a microinjector (Nanoject II Auto-Nanoliter Injector, Drummond Scientific Co.). 50 nl of nuclease-free water alone (control oocytes) or 50 nl of 0.6 μg μl^−1 RNA were injected under stereomicroscopic control. Injected oocytes were incubated for 46–72 h at 18 °C with twice-daily buffer changes before usage in experiments.
Drug uptake assays were performed as described previously[21],[22],[24],[34]. […] The direction of radio-labeled drug transport is here from the mostly acidic extracellular solution (pH 4.5 or 6.0, as indicated) into the oocyte cytosol (pH ∼ 7.2), which corresponds to the efflux of drug from the acidic digestive vacuole (pH 5.2) into the parasite cytoplasm (pH 7.2). The topology of PfCRT in the oolemma is such that both the N- and C-terminus face the extracellular milieu[3],[22]. In the parasite, the N- and C-terminus face the lumen of the digestive vacuole. […] For determination of the amount of drug uptake for each oocyte, the reaction medium was removed and the oocytes were washed three times with 2 ml of ice-cold ND96 buffer. Each oocyte was individually transferred to a scintillation vial containing 5% sodium dodecyl sulfate (200 μl) for lysis. […] Oocytes that were injected with water instead of RNA were analyzed in parallel, representing the uptake of a drug by diffusion and/or endogenous permeation pathways. The resulting value represents the “background“ level of drug accumulation in oocytes (in-depth discussion in[22]). The specific PfCRT-mediated uptake was determined by subtracting the corresponding background value measured in water-injected oocytes from that of PfCRT-expressing oocytes. In all cases, at least three separate experiments were performed on oocytes from different frogs (biological replicate), and for each condition in an experiment, measurements were made from 10 oocytes per treatment. For pH 5.5, 6.0, and 6.5, ND96 was buffered with 5 mM MES/Tris base. For pH 4.5, 5 mM Homo-Pipes was used as a buffer and 5 mM HEPES for uptake at pH 7.0.

Chain of PfCRT^Dd2 (Q9N623 whole entry A220S/I356T/K76T/M74I/N326S/N75E/Q271E/R371I): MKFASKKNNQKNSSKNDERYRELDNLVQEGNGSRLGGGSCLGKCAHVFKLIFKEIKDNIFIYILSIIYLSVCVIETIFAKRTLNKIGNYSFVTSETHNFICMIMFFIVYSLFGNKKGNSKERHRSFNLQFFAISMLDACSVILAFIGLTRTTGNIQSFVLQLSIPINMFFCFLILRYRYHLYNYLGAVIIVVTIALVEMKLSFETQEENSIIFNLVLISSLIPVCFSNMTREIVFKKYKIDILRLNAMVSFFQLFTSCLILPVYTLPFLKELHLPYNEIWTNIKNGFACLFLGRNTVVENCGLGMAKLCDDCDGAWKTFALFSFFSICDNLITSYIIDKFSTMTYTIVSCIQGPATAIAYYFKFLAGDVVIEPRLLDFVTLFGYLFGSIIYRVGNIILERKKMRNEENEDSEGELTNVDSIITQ

CCN(CC)CCCC(C)Nc1ccnc2cc(Cl)ccc12 (centres unmarked) [CQ, chloroquine]
PfCRTDd2-mediated CQ transport activity (300 µM CQ, time 90 min): 21.08 pmol oocyte-1
v-1 pH 4.5 (300 µM CQ): 0.11 (pmol oocyte-1 h-1)-1
v-1 pH 5.0 (300 µM CQ): 0.09 (pmol oocyte-1 h-1)-1
v-1 pH 5.5 (300 µM CQ): 0.08 (pmol oocyte-1 h-1)-1
v-1 pH 6.0 (300 µM CQ): 0.0649 (pmol oocyte-1 h-1)-1
PfCRTDd2 transport activity (400 µM CQ, pH 4.5, 60 min): 9.19 pmol oocyte-1 h-1 and 9.21 pmol oocyte-1 h-1 and 9.15 pmol oocyte-1 h-1 and 10.13 pmol oocyte-1 h-1 and 7.52 pmol oocyte-1 h-1 and 9.96 pmol oocyte-1 h-1
PfCRTDd2 transport activity (400 µM CQ, pH 5.0, 60 min): 11.32 pmol oocyte-1 h-1
PfCRTDd2 transport activity 400 µM CQ pH 5.0 (400 µM CQ, pH 5.0, individual replicates (Fig 4a)): 11.40 pmol oocyte-1 h-1 and 11.89 pmol oocyte-1 h-1 and 10.67 pmol oocyte-1 h-1
PfCRTDd2 transport activity (400 µM CQ, pH 5.5, 60 min): 13.77 pmol oocyte-1 h-1
PfCRTDd2 transport activity 400 µM CQ pH 5.5 (400 µM CQ, pH 5.5, individual replicates (Fig 4a)): 14.89 pmol oocyte-1 h-1 and 13.71 pmol oocyte-1 h-1 and 13.31 pmol oocyte-1 h-1
PfCRTDd2 transport activity (400 µM CQ, pH 6.0, 60 min): 19.62 pmol oocyte-1 h-1 and 19.38 pmol oocyte-1 h-1 and 19.10 pmol oocyte-1 h-1 and 20.37 pmol oocyte-1 h-1
PfCRTDd2 transport activity 400 µM CQ pH 6.0 (400 µM CQ, pH 6.0, individual replicates (Fig 4a)): 19.38 pmol oocyte-1 h-1 and 19.10 pmol oocyte-1 h-1 and 20.37 pmol oocyte-1 h-1
PfCRTDd2-mediated CQ transport activity (400 µM CQ, time 0 min): 0.00 pmol oocyte-1
PfCRTDd2-mediated CQ transport activity (400 µM CQ, time 30 min): 11.37 pmol oocyte-1
PfCRTDd2-mediated CQ transport activity (400 µM CQ, time 60 min): 18.93 pmol oocyte-1
PfCRTDd2-mediated CQ transport activity (400 µM CQ, time 90 min): 23.37 pmol oocyte-1
v-1 pH 4.5 (400 µM CQ): 0.11 (pmol oocyte-1 h-1)-1
v-1 pH 5.0 (400 µM CQ): 0.09 (pmol oocyte-1 h-1)-1
v-1 pH 5.5 (400 µM CQ): 0.07 (pmol oocyte-1 h-1)-1
v-1 pH 6.0 (400 µM CQ): 0.05 (pmol oocyte-1 h-1)-1
PfCRTDd2 transport activity (500 µM CQ, pH 4.5, 60 min): 9.38 pmol oocyte-1 h-1 and 9.85 pmol oocyte-1 h-1 and 9.73 pmol oocyte-1 h-1 and 10.40 pmol oocyte-1 h-1 and 7.53 pmol oocyte-1 h-1
PfCRTDd2 transport activity 500 µM CQ pH 4.5 (500 µM CQ, pH 4.5, individual replicates (Fig 4a)): 9.85 pmol oocyte-1 h-1 and 9.73 pmol oocyte-1 h-1 and 10.40 pmol oocyte-1 h-1 and 7.53 pmol oocyte-1 h-1
PfCRTDd2 transport activity (500 µM CQ, pH 5.0, 60 min): 11.35 pmol oocyte-1 h-1
PfCRTDd2 transport activity 500 µM CQ pH 5.0 (500 µM CQ, pH 5.0, individual replicates (Fig 4a)): 12.28 pmol oocyte-1 h-1
PfCRTDd2 transport activity (500 µM CQ, pH 5.5, 60 min): 14.75 pmol oocyte-1 h-1
PfCRTDd2 transport activity 500 µM CQ pH 5.5 (500 µM CQ, pH 5.5, individual replicates (Fig 4a)): 14.32 pmol oocyte-1 h-1 and 15.56 pmol oocyte-1 h-1 and 14.38 pmol oocyte-1 h-1 and 14.75 pmol oocyte-1 h-1
PfCRTDd2 transport activity (500 µM CQ, pH 6.0, 60 min): 20.73 pmol oocyte-1 h-1 and 20.81 pmol oocyte-1 h-1 and 20.59 pmol oocyte-1 h-1 and 20.78 pmol oocyte-1 h-1
PfCRTDd2 transport activity 500 µM CQ pH 6.0 (500 µM CQ, pH 6.0, individual replicates (Fig 4a)): 20.81 pmol oocyte-1 h-1 and 20.59 pmol oocyte-1 h-1 and 20.78 pmol oocyte-1 h-1
PfCRTDd2-mediated CQ transport activity (500 µM CQ, time 0 min): 0.00 pmol oocyte-1
PfCRTDd2-mediated CQ transport activity (500 µM CQ, time 30 min): 18.55 pmol oocyte-1
PfCRTDd2-mediated CQ transport activity (500 µM CQ, time 60 min): 25.91 pmol oocyte-1
PfCRTDd2-mediated CQ transport activity (500 µM CQ, time 90 min): 27.18 pmol oocyte-1
v-1 pH 4.5 (500 µM CQ): 0.11 (pmol oocyte-1 h-1)-1
v-1 pH 5.0 (500 µM CQ): 0.09 (pmol oocyte-1 h-1)-1
v-1 pH 5.5 (500 µM CQ): 0.07 (pmol oocyte-1 h-1)-1
